Measurements taken from PMC12349723, “Computationally accelerated identification of P-glycoprotein inhibitors” (PLOS One, 2025).

How the values were obtained:
DU145 cells = test: MTT viability assay, non-P-gp overexpressing DU145 parental line, with or without PTX; format: cell-based, human; details: for Sensitization of DU145 cells to PTX: 15 µM compound + PTX vs PTX alone; for % Survival, Mean, 15 µM compound + 500 nM PTX / % Survival, 15 µM Compound alone (individual samples) / % Survival, 15 µM compound + 500 nM PTX (individual samples) / viability at 15 µM: DU145 cells, 48 h; for % Survival, Mean, 15 µM compound + 500 nM PTX / viability at 15 µM: mean of 8 samples; for % Survival, 15 µM Compound alone (individual samples) / % Survival, 15 µM compound + 500 nM PTX (individual samples): single samples, 2 trials x 4 samples; for viability at 15 µM: Homo sapiens, DU-145, 48 h, read-out: % Survival, Mean, 15 µM Compound alone
Method: (§1) The chemotherapeutic sensitive DU145 human prostate cancer cells and the multidrug resistant sub-line, DU145-TXR, were generous gifts from Dr. Evan Keller (University of Michigan, Ann Arbor, MI). The MDR, P-gp overexpressing DU145-TXR cells were maintained under positive selection pressure by supplementing complete medium with 10 nM paclitaxel (Acros Organics, NJ). […] The MDR, P-gp overexpressing A2780-ADR cell line was maintained under positive selection pressure by supplementing complete medium with 100 nM doxorubicin (Fisher Scientific, NJ). The non-cancerous HFL1 (human lung fibroblast) cell line cell line was a generous gift from Dr. Robert Harrod (Southern Methodist University, Dallas, TX) and was maintained in complete F12K media consisting of F12K with 10% fetal bovine serum, 100 U/mL penicillin, and 100 µg/mL streptomycin (Gibco). Flasks and 96 well plates that were used with the non-cancerous line HFL1 were pre-treated with 0.1 mg/ml Collagen Type 1 (Gibco) and rinsed with PBS (Fisher).
Culture of the DU145, DU145-TXR, and HFL1 cell lines was performed as described in [8]. Culture of the A2780 and A2780-ADR cell lines was performed as described in [9]. MTT assays were performed as described in [8] with minor modifications. […] Data represent the mean of two separate experiments, with n = 3 samples per experiment (n = 6 total) (S4 Table).
(§2) MTT assays measure the reduction of yellow, water soluble 3-(4,5-dimethylthiazol-2-yl)-2,5-diphenyltetrazolium bromide (MTT) to blue, insoluble formazan crystals by cellular reductase processes in living cells. Cells were trypsinized from monolayers and seeded in complete medium in 96 well plates. Cancerous cell lines (DU145, DU145-TXR, A2780, A2780-ADR) were seeded at 3,000 cells per well in complete RPMI medium. The non-cancerous HFL1 line was seeded at 4,000 cells per well in complete F12K medium, in collagen-treated plates (Collagen Type 1, Gibco). Cells were incubated with experimental compounds for 48 hours at 37 °C and 5% CO2 in a humidified incubator. At 48 hours, MTT was added (20 µL/well of 5 mg/mL MTT in PBS) to each well. After incubation for 4 hours, the media was removed, and the formazan crystals were dissolved in 100 µL DMSO per well. Plates containing the semi-adherent A2780 or A2780-ADR lines were spun at 1400 rpm for 3 minutes prior to aspiration of media, and the addition of DMSO. Plates were shaken for 10 minutes at 500 rpm on an Orbital shaker (LabDoctor from MidSci, St Louis, MO). The absorbance was measured at 570 nm using a Bio-Tek Cytation 5 (Bio-Tek, Winooski, VT). The measured absorbance value was correlated with the number of metabolically active cells in that well, corrected for absorbance of media. The percent of cell viability (termed ‘survival’ here) was calculated as a percentage of survival of the control condition, which refers to vehicle-treated (DMSO as vehicle) cells, or vehicle-and-chemotherapeutic-treated cells, if testing a compound’s ability to re-sensitize cells to a chemotherapeutic. Percent survival was calculated using the following equation:
(§3) % Survival=100 × absorbance of experimental cells/mean absorbance of control treated cells
(§4) For DU145-TXR, DU145, HFL1 and A2780 cells – data are the mean ± one standard deviation, 8 samples per compound, from at least two independent trials per compound. […] For A2780-ADR cells, data are the mean ± one standard deviation with 12 samples per compound, from at least two independent trials per compound.
67 compounds were chosen from computational screens for testing in vitro. A) DU145-TXR cells were exposed to 15 µM experimental compound with or without 500 nM of the P-gp substrate and chemotherapeutic paclitaxel (PTX).

[1] = test system: HFL1 (human lung fibroblast) cell line; test: MTT viability assay, inherent toxicity in non-cancerous HFL1 cells; format: cell-based; parameters: Mean % Survival: tested at 15 µM; details: for Inherent toxicity to non-cancerous HFL1 cells: 15 µM compound, 48 h, MTT, 20% reduction in viability = maximum acceptable toxicity; for Mean % Survival / % Survival (individual sample): HFL1 cells, compound alone; for Mean % Survival: mean of 8 samples; for % Survival (individual sample): single samples (trials 1-2, samples 1-4)
Method: as §1, §2, §3, §4
If a P-gp inhibitor is intrinsically toxic to non-cancerous cells, it is more likely to be participating in undesirable off-target interactions. The top compounds from the screens shown above were screened for inherent toxicity using the non-cancerous HFL1 (human lung fibroblast) cell line. HFL1 cells were incubated with 15 µM compound for 48 hours, after which cell viability was assessed using MTT cell viability assays. A 20% reduction in cell viability (compared to DMSO-treated cells) was considered the maximum acceptable toxicity (see dotted line). The chemotherapeutic daunorubicin was included as a positive control for toxicity.
The top compounds from previous screens were tested against the non-cancerous HFL1 cell line.

[2] = Resazurin cell viability pre-screen in DU145-TXR cells with or without PTX; format: cell-based; details: human, mean of two experiments in triplicate, read-out: Viability, 15 µM compound alone
Method: Culture of the DU145, DU145-TXR, and HFL1 cell lines was performed as described in [8]. Culture of the A2780 and A2780-ADR cell lines was performed as described in [9]. MTT assays were performed as described in [8] with minor modifications. LC-MS/MS accumulation assays were performed as described in {Nanayakkara, 2018 #173} [9] with some modifications. […] The inhibitor concentration was lowered to 15 µM here, as the goal of the study was to identify compounds that were effective in reversing MDR at low concentrations, and to determine if the expanded virtual-assisted methods improved on our first-draft attempt. Compounds 56–98 were pre-screened using Resazurin cell viability assays: cells were incubated with 15 µM compound with or without 500 nM PTX for 48 hours, after which cell survival was assessed similar to [39]. Data represent the mean of two separate experiments, with n = 3 samples per experiment (n = 6 total) (S4 Table). The top performing compounds from this initial screen were re-tested with MTT viability assays against DU145-TXR cells, as described below.
S4 Table. Pre-screening of compounds 56 – 98 against DU145-TXR cells with resazurin assays. DU145-TXR cells were incubated with 15 µM compound with or without 500nM PTX for 48 hrs; survival was subsequently determined with the Resazurin viability assay ^[37]. […] Percent re-sensitization is defined as the percent change in viability between cells treated with compound and PTX, versus cells treated with PTX alone. In some instances, the assay reported an increase in viability with compound + PTX, and no percent sensitization is reported. ‘Follow-up Testing’ compounds were re-assessed with MTT assays (Figure 1). Compounds 59 and 89 (*, ‘Follow-up Testing’) were used as negative controls in follow-up MTT assays to test for consistency of results, e.g. to confirm that molecules eliminated in Resazurin assays were justifiably eliminated from later screening with MTT assays.

Structure (SMILES)	Sensitization of DU145 cells to PTX (DU145 cells)	% Survival, Mean, 15 µM compound + 500 nM PTX (DU145 cells) [%]	% Survival, 15 µM Compound alone (individual samples) (DU145 cells) [%]	% Survival, 15 µM compound + 500 nM PTX (individual samples) (DU145 cells) [%]	viability at 15 µM (DU145 cells) [%]	Inherent toxicity to non-cancerous HFL1 cells [1]	Mean % Survival [1] [%]	% Survival (individual sample) [1] [%]	viability at 48 h, 15 µM [2] [%]
Cc1onc(-c2ccccc2)c1-c1nnc(Cn2cnc3c(oc4ccccc43)c2=O)o1 [Compound 78, Cc1onc(c1-c1nnc(Cn2cnc3c4ccccc4oc3c2=O)o1)-c1ccccc1]	insignificantly sensitize DU145 cells to PTX	33.6	94	31	89.2	either ‘non-toxic’ or ‘within acceptable limits’ of toxicity	99.6	102	95.2
O=S(=O)(CCSc1nnc(-c2ccccc2)c2ccccc12)c1ccccc1 [Compound 96, O=S(=O)(CCSc1nnc(-c2ccccc2)c2ccccc12)c1ccccc1]	insignificantly sensitize DU145 cells to PTX	28.8	65	26	77	either ‘non-toxic’ or ‘within acceptable limits’ of toxicity	92.7	91	89.4
O=S(=O)(Cc1nc2ccccc2n1CC(O)c1ccc(Cl)cc1)c1ccccc1 (centres unmarked) [Compound 97, OC(Cn1c(CS(=O)(=O)c2ccccc2)nc2ccccc12)c1ccc(Cl)cc1]	insignificantly sensitize DU145 cells to PTX	23.9	72		73.5	either ‘non-toxic’ or ‘within acceptable limits’ of toxicity	84.9	85	102
